Source: patent US5741811A, “Polythiophene anti-tumor agents” (Purdue Research Foundation, priority 1996, dated 1998)
Like-named read-outs stand apart in the source and are kept apart here.

What was measured:
Assay in all cases: NCI human tumor cell line panel growth inhibition
Format in all cases: cell-based
[1] = system: NCI-H226 lung cancer cells; conditions: Homo sapiens, read-out: Log10 GI50 (converted)
[2] = system: NCI-H522 lung cancer cells; conditions: read-out: Log10 GI50 (converted)
[3] = system: IGROV-1 ovarian cancer cells; conditions: Homo sapiens, read-out: Log10 GI50 (converted)
[4] = system: MALME-3M melanoma cells; conditions: read-out: Log10 GI50 (converted)
[5] = system: HCC-2998 colon cancer cells; conditions: Homo sapiens, read-out: Log10 GI50 (converted)
[6] = system: HOP-62 lung cancer cells; conditions: Homo sapiens, read-out: Log10 GI50 (converted)
[7] = system: SNB-75 CNS cancer cells; conditions: Homo sapiens, read-out: Log10 GI50 (converted)
[8] = system: A549/ATCC lung cancer cells; conditions: Homo sapiens, read-out: Log10 GI50 (converted)
[9] = system: UO-31 renal cancer cells; conditions: read-out: Log10 GI50 (converted)
[10] = system: LXPL-529 lung cancer cells; conditions: Homo sapiens, read-out: Log10 GI50 (converted)
[11] = system: 786-0 renal cancer cells; conditions: read-out: Log10 GI50 (converted)
[12] = system: TK-10 renal cancer cells; conditions: Homo sapiens, read-out: Log10 GI50 (converted)
[13] = system: SK-OV-3 ovarian cancer cells; conditions: Homo sapiens, read-out: Log10 GI50 (converted)
[14] = system: SN12C renal cancer cells; conditions: read-out: Log10 GI50 (converted)
[15] = system: UACC-257 melanoma cells; conditions: Homo sapiens, read-out: Log10 GI50 (converted)
[16] = system: NCI-H460 lung cancer cells; conditions: Homo sapiens, read-out: Log10 GI50 (converted)
[17] = system: SF-295 CNS cancer cells; conditions: read-out: Log10 GI50 (converted)
[18] = system: COLO-205 colon cancer cells; conditions: Homo sapiens
[19] = system: HT29 colon cancer cells; conditions: Homo sapiens, HT-29, read-out: Log10 GI50 (converted)
[20] = system: SK-MEL-2 melanoma cells; conditions: read-out: Log10 GI50 (converted)
[21] = system: HOP-18 lung cancer cells; conditions: Homo sapiens, read-out: Log10 GI50 (converted)
[22] = system: CAKI-1 renal cancer cells; conditions: Homo sapiens; CAKI-1, renal cancer; read-out: Log10 GI50 (converted)
[23] = system: RXF-393 renal cancer cells; conditions: Homo sapiens, read-out: Log10 GI50 (converted)
[24] = system: A-498 renal cancer cells; conditions: Homo sapiens, A498, read-out: Log10 GI50 (converted)
[25] = system: SF-268 CNS cancer cells; conditions: read-out: Log10 GI50 (converted)
[26] = system: M-14 melanoma cells; conditions: M14, read-out: Log10 GI50 (converted)
[27] = system: OVCAR-3 ovarian cancer cells; conditions: Homo sapiens; OVCAR-3, ovarian cancer; read-out: Log10 GI50 (converted)
[28] = system: U251 CNS cancer cells; conditions: Homo sapiens, U-251, read-out: Log10 GI50 (converted)
[29] = system: EKVX lung cancer cells; conditions: read-out: Log10 GI50 (converted)
[30] = system: DLD-1 colon cancer cells; conditions: Homo sapiens, read-out: Log10 GI50 (converted)
[31] = system: ACHN renal cancer cells; conditions: read-out: Log10 GI50 (converted)
[32] = system: NCI-H322M lung cancer cells; conditions: Homo sapiens, read-out: Log10 GI50 (converted)
[33] = system: NCI-H23 lung cancer cells; conditions: read-out: Log10 GI50 (converted)
[34] = system: RXF-631 renal cancer cells; conditions: Homo sapiens, read-out: Log10 GI50 (converted)
[35] = system: UACC-62 melanoma cells; conditions: Homo sapiens, read-out: Log10 GI50 (converted)
[36] = system: KM20L2 colon cancer cells; conditions: Homo sapiens, KM-20L2, read-out: Log10 GI50 (converted)
[37] = system: OVCAR-5 ovarian cancer cells; conditions: Homo sapiens, read-out: Log10 GI50 (converted)
[38] = system: HCT-15 colon cancer cells; conditions: Homo sapiens, read-out: Log10 GI50 (converted)
[39] = system: LOX IMVI melanoma cells; conditions: read-out: Log10 GI50 (converted)
[40] = system: HCT-116 colon cancer cells; conditions: Homo sapiens, read-out: Log10 GI50 (converted)
[41] = system: T-47D breast cancer cells; conditions: T47D, read-out: Log10 GI50 (converted)
Experimental: The assay was carried out in 96-well microtiter plates. The MTT assay is based on the production of a dark blue formazan product by dehydrogenase in the mitochondria of live tumor cells after exposure to drug for 6 days [M. C. […] The SRB assay is based on the binding of the anionic group to the basic amino acid residues of cellular proteins after exposure of tumor cells to drug for 2 days [P. Skehan, R. Storeng, D. Scudiero, A. Monks, J. McMahon, D. Vistica, J. T. Warren, H. Bohesch, S. Kenney and M. R. Boyd, J. Nat.

[42] = system: OVCAR-8 ovarian cancer cells; conditions: Homo sapiens, read-out: Log10 GI50 (converted)
Experimental: (§1) The first screen measures the cytotoxicity against a panel of sixty different human tumor cell lines. This assay provides data regarding the general cytotoxicity of an individual compound.
(§2) The length of a bar is indicative of differential cytotoxicity against a specific type of tumor cells or tumor panels.
(§3) The antitumor cytotoxicity of the thiophene compounds tested in the first two in vitro assays was measured by a microculture assay using either 3-(4,5-dimethylthiazol-2-yl)-2,5-diphenyltetrazolium bromide (MTT) or sulforhodamine B (SRB). [M. R. Boyd in "Principles and Practices of Oncology," V. T. DeVita, Jr., S. Hellman and S. A. Rosenberg (Eds.), Vol. 3, PPO Updates, Number 10, 1989.] This assay has an advantage over in vivo assay in that results are obtained within a week as opposed to several months. The assay was carried out in 96-well microtiter plates. The MTT assay is based on the production of a dark blue formazan product by dehydrogenase in the mitochondria of live tumor cells after exposure to drug for 6 days [M. C. Alley, D. A. Scudiero, A. Monks, M. L. Hursey, M. J. Czerwinski, D. L. Fine, B. J. Abbott, J. G. Mayo, R. H. Shoemaker and M. R. Boyd, Cancer Res., 48, 589, 1988.] Thus, only live cells are stained and can be measured at 570 nm. The SRB assay is based on the binding of the anionic group to the basic amino acid residues of cellular proteins after exposure of tumor cells to drug for 2 days [P. Skehan, R. Storeng, D. Scudiero, A. Monks, J. McMahon, D. Vistica, J. T. Warren, H. Bohesch, S. Kenney and M. R. Boyd, J. Nat. Cancer Inst., 82, 1107, 1990.] Thus, the total protein (viability) can be measured at 564 nm.

[43] = system: SW-620 colon cancer cells; conditions: Homo sapiens, read-out: Log10 GI50 (converted)
Experimental: as §1, §2, §3

[44] = system: SNB-19 CNS cancer cells; conditions: Homo sapiens, read-out: Log10 GI50 (converted)
[45] = system: HOP-92 lung cancer cells; conditions: Homo sapiens, read-out: Log10 GI50 (converted)
Excerpt: (§4) The cytotoxic activity of the present polythiophene compounds have been measured utilizing three different assays or screens. The first screen measures the cytotoxicity against a panel of sixty different human tumor cell lines. This assay provides data regarding the general cytotoxicity of an individual compound. In particular this type of assay is useful in identifying compounds which have enhanced cytotoxic activity against slow growing tumors as compared to faster growing tumor cells such as leukemia tumor cell lines. The identification of such compounds is critical since previously identified antitumor agents have low cytotoxic activity against slower growing tumors. […] The specificity of a cytotoxic compound for tumor cell lines relative to normal cells is an important characteristic of an effective antitumor agent.
as §2, §3

[46] = system: MDA-MB-231/ATCC breast cancer cells; conditions: read-out: Log10 GI50 (converted)
Excerpt: as §4, §2, §3

[47] = system: SK-MEL-28 melanoma cells; conditions: read-out: Log10 GI50 (converted)
Excerpt: as §4, §2, §3

[48] = system: OVCAR-4 ovarian cancer cells; conditions: Homo sapiens, read-out: Log10 GI50 (converted)
Excerpt: as §4, §2, §3

[49] = system: KM12 colon cancer cells; conditions: Homo sapiens, read-out: Log10 GI50 (converted)
Excerpt: as §4, §2, §3

[50] = system: PC-3 prostate cancer cells; conditions: read-out: Log10 GI50 (converted)
Excerpt: as §4, §2, §3

[51] = system: MDA-N breast cancer cells; conditions: read-out: Log10 GI50 (converted)
Excerpt: as §4, §2, §3

[52] = system: DU-145 prostate cancer cells; conditions: read-out: Log10 GI50 (converted)
Excerpt: as §4, §2, §3

[53] = system: MCF7 breast cancer cells; conditions: read-out: Log10 GI50 (converted)
Excerpt: as §4, §2, §3

[54] = system: SK-MEL-5 melanoma cells; conditions: read-out: Log10 GI50 (converted)
Excerpt: as §4, §2, §3

Row | SMILES | GI50 [3] [µM] | GI50 [4] [µM] | GI50 [5] [µM] | GI50 [6] [µM] | GI50 [7] [µM] | GI50 [11] [µM] | GI50 [12] [µM] | GI50 [15] [µM] | GI50 [16] [µM] | GI50 [17] [µM] | GI50 [19] [µM] | GI50 [22] [µM] | GI50 [23] [µM] | GI50 [24] [µM] | GI50 [25] [µM] | GI50 [26] [µM] | GI50 [27] [µM] | GI50 [28] [µM] | GI50 [32] [µM] | GI50 [33] [µM] | other results
1 | CC(=O)OCc1ccc(-c2ccc(-c3cccs3)s2)s1 | 5.01 | 32.4 | 24.5 | 24 | < 0.01 | 18.6 | 0.12 | 0.0933 | 1.51 | 18.2 | 30.2 | 0.0182 | 18.2 | 0.0437 | 24.5 | 39.8 | 0.0257 | < 0.01 | 19.5 | 19.5 | GI50 [1]: 0.324 µM; GI50 [2]: 13.2 µM; GI50 [8]: 6.61 µM; GI50 [9]: 18.6 µM; GI50 [10]: < 0.01 µM; GI50 [13]: 91.2 µM; GI50 [14]: 28.8 µM; GI50 ([18]; COLO-205, colon cancer, read-out: Log10 GI50 (converted)): 0.437 µM; GI50 [20]: 72.4 µM; GI50 [21]: 2.34 µM; GI50 [29]: 24.5 µM; GI50 [30]: < 0.01 µM; GI50 [31]: 17.8 µM; GI50 [34]: < 0.01 µM; GI50 [35]: 17 µM; GI50 [36]: 0.132 µM; GI50 [37]: 26.3 µM; GI50 [38]: 50.1 µM; GI50 [39]: 24 µM
2 | OCc1ccc(-c2ccc(-c3ccsc3)s2)s1 [drawing 37] | 0.219 | 38.9 | 0.977 | 20.4 | 30.9 | 57.5 | 0.204 | 0.191 | 25.1 | 35.5 | 13.8 | 0.0229 | 20.4 | 0.115 | 53.7 | 42.7 | 0.158 | 10.7 | 16.2 | 24 | GI50 [40]: 0.363 µM; GI50 ([18]; COLO 205, read-out: Log10 GI50 (converted)): 0.912 µM; GI50 [41]: 0.339 µM; GI50 [42]: 57.5 µM; GI50 [43]: 47.9 µM; GI50 [44]: 33.1 µM; GI50 [37]: 0.417 µM; GI50 [45]: 38.9 µM; GI50 [46]: 28.2 µM; GI50 [47]: 36.3 µM; GI50 [48]: 25.1 µM; GI50 [49]: 83.2 µM; GI50 [50]: 51.3 µM; GI50 [51]: 0.501 µM; GI50 [52]: 66.1 µM; GI50 [53]: 0.257 µM; GI50 [54]: 41.7 µM; GI50 [38]: 58.9 µM
